Numbers after ± are expanded uncertainties.
Experiment: molar heat capacity at saturation pressure

CCCCn1cc[n+](C)c1.Cc1ccc(S(=O)(=O)[O-])cc1 [1-butyl-3-methylimidazolium tosylate]
Settings | molar heat capacity [J/K/mol]
283.38 K, Crystal 1 | 400.74 ± 4
283.57 K, Crystal 1 | 401.36 ± 4
284.36 K, Metastable crystal | 414.71 ± 4.3
285.22 K, Crystal 1 | 405.4 ± 4
285.23 K, Crystal 1 | 405.09 ± 4
285.41 K, Crystal 1 | 405.71 ± 4
286.18 K, Metastable crystal | 418.44 ± 4.3
287.05 K, Crystal 1 | 409.74 ± 4.3
287.07 K, Crystal 1 | 409.12 ± 4.3
287.24 K, Crystal 1 | 410.37 ± 4.3
288 K, Metastable crystal | 422.47 ± 4.3
288.87 K, Crystal 1 | 414.71 ± 4.3
288.9 K, Crystal 1 | 414.09 ± 4.3
289.06 K, Crystal 1 | 415.64 ± 4.3
289.81 K, Metastable crystal | 426.82 ± 4.3
290.68 K, Crystal 1 | 419.06 ± 4.3
290.72 K, Crystal 1 | 418.75 ± 4.3
290.87 K, Crystal 1 | 419.99 ± 4.3
291.62 K, Metastable crystal | 431.16 ± 4.3
292.49 K, Crystal 1 | 423.71 ± 4.3
292.53 K, Crystal 1 | 423.4 ± 4.3
292.67 K, Crystal 1 | 424.02 ± 4.3
293.42 K, Metastable crystal | 435.51 ± 4.3
294.29 K, Crystal 1 | 427.13 ± 4.3
294.33 K, Crystal 1 | 428.06 ± 4.3
294.47 K, Crystal 1 | 427.44 ± 4.3
295.21 K, Metastable crystal | 439.86 ± 4.7
296.09 K, Crystal 1 | 431.47 ± 4.3
296.13 K, Crystal 1 | 432.72 ± 4.3
296.27 K, Crystal 1 | 432.09 ± 4.3
296.99 K, Metastable crystal | 445.13 ± 4.7
297.87 K, Crystal 1 | 436.13 ± 4.3
297.92 K, Crystal 1 | 437.06 ± 4.3
298.05 K, Crystal 1 | 436.75 ± 4.3
298.77 K, Metastable crystal | 450.1 ± 4.7
299.66 K, Crystal 1 | 440.79 ± 4.7
299.71 K, Crystal 1 | 442.65 ± 4.7
299.83 K, Crystal 1 | 442.03 ± 4.7
300.21 K, Crystal 1 | 440.48 ± 4.7
300.54 K, Metastable crystal | 455.38 ± 4.7
301.54 K, Crystal 1 | 446.68 ± 4.7
301.6 K, Crystal 1 | 447.93 ± 4.7
301.72 K, Crystal 1 | 447.62 ± 4.7
302.1 K, Crystal 1 | 445.44 ± 4.7
302.41 K, Metastable crystal | 461.89 ± 4.7
303.54 K, Crystal 1 | 452.58 ± 4.7
303.6 K, Crystal 1 | 453.2 ± 4.7
303.71 K, Crystal 1 | 453.82 ± 4.7
304.1 K, Crystal 1 | 451.03 ± 4.7
304.39 K, Metastable crystal | 469.03 ± 4.7
305.52 K, Crystal 1 | 458.79 ± 4.7
305.59 K, Crystal 1 | 460.34 ± 4.7
305.69 K, Crystal 1 | 460.03 ± 4.7
306.09 K, Crystal 1 | 457.24 ± 4.7
306.36 K, Metastable crystal | 476.79 ± 5
307.5 K, Crystal 1 | 465.93 ± 4.7
307.57 K, Crystal 1 | 467.79 ± 4.7
307.67 K, Crystal 1 | 467.17 ± 4.7
308.07 K, Crystal 1 | 463.76 ± 4.7
308.32 K, Metastable crystal | 485.8 ± 5
309.47 K, Crystal 1 | 473.69 ± 5
309.54 K, Crystal 1 | 474.93 ± 5
309.64 K, Crystal 1 | 475.24 ± 5
310.04 K, Crystal 1 | 471.52 ± 5
310.26 K, Metastable crystal | 496.04 ± 5
311.42 K, Crystal 1 | 482.69 ± 5
311.49 K, Crystal 1 | 484.55 ± 5
311.59 K, Crystal 1 | 484.24 ± 5
311.76 K, Metastable crystal | 501.63 ± 5
311.99 K, Crystal 1 | 479.59 ± 5
313.37 K, Crystal 1 | 492.63 ± 5
313.44 K, Crystal 1 | 494.8 ± 5
313.53 K, Crystal 1 | 493.56 ± 5
313.67 K, Metastable crystal | 515.91 ± 5.3
313.94 K, Crystal 1 | 489.21 ± 5
315.3 K, Crystal 1 | 503.49 ± 5.3
315.37 K, Crystal 1 | 505.97 ± 5.3
315.46 K, Crystal 1 | 503.18 ± 5.3
315.56 K, Metastable crystal | 532.05 ± 5.3
315.87 K, Crystal 1 | 499.45 ± 5
317.22 K, Crystal 1 | 514.97 ± 5.3
317.29 K, Crystal 1 | 518.39 ± 5.3
317.39 K, Crystal 1 | 512.18 ± 5.3
317.42 K, Metastable crystal | 550.67 ± 5.6
317.78 K, Crystal 1 | 512.49 ± 5.3
319.11 K, Crystal 1 | 529.25 ± 5.3
319.18 K, Crystal 1 | 534.53 ± 5.6
319.26 K, Metastable crystal | 573.33 ± 5.9
319.29 K, Crystal 1 | 524.29 ± 5.3
319.67 K, Crystal 1 | 527.08 ± 5.3
320.98 K, Crystal 1 | 545.71 ± 5.6
321.05 K, Crystal 1 | 553.47 ± 5.6
321.06 K, Metastable crystal | 600.03 ± 6.2
321.17 K, Crystal 1 | 538.26 ± 5.6
321.53 K, Crystal 1 | 544.77 ± 5.6
322.82 K, Crystal 1 | 565.88 ± 5.6
322.82 K, Metastable crystal | 633.24 ± 6.5
322.89 K, Crystal 1 | 575.51 ± 5.9
323.03 K, Crystal 1 | 555.95 ± 5.6
323.37 K, Crystal 1 | 566.5 ± 5.9
324.53 K, Metastable crystal | 675.15 ± 6.8
324.63 K, Crystal 1 | 590.72 ± 5.9
324.69 K, Crystal 1 | 602.51 ± 6.2
324.85 K, Crystal 1 | 578.61 ± 5.9
325.17 K, Crystal 1 | 593.51 ± 5.9
326.19 K, Metastable crystal | 727.92 ± 7.4
326.41 K, Crystal 1 | 621.45 ± 6.2
326.45 K, Crystal 1 | 635.42 ± 6.5
326.64 K, Crystal 1 | 607.48 ± 6.2
326.92 K, Crystal 1 | 628.28 ± 6.5
328.13 K, Crystal 1 | 660.56 ± 6.8
328.17 K, Crystal 1 | 676.7 ± 6.8
328.38 K, Crystal 1 | 644.42 ± 6.5
328.62 K, Crystal 1 | 675.15 ± 6.8
329.79 K, Crystal 1 | 710.85 ± 7.1
329.82 K, Crystal 1 | 728.23 ± 7.4
330.07 K, Crystal 1 | 691.29 ± 7.1
330.24 K, Crystal 1 | 740.02 ± 7.4
340.93 K, Metastable crystal | 542.91 ± 19
342.74 K, Crystal 1 | 648.45 ± 23
342.82 K, Liquid | 542.91 ± 5.6
343.34 K, Crystal 1 | 571.47 ± 6.2
343.81 K, Crystal 1 | 550.05 ± 5.6
343.97 K, Liquid | 543.84 ± 5.6
344.54 K, Liquid | 545.4 ± 5.6
344.72 K, Liquid | 544.77 ± 5.6
345.34 K, Liquid | 544.46 ± 5.6
346.06 K, Liquid | 544.77 ± 5.6
346.43 K, Liquid | 546.33 ± 5.6
346.46 K, Liquid | 546.64 ± 5.6
346.61 K, Liquid | 546.02 ± 5.6
347.35 K, Liquid | 545.71 ± 5.6
348.14 K, Liquid | 546.02 ± 5.6
348.31 K, Liquid | 547.57 ± 5.6
348.49 K, Liquid | 547.26 ± 5.6
348.72 K, Liquid | 547.57 ± 5.6
348.77 K, Liquid | 547.57 ± 5.6
350.2 K, Liquid | 549.43 ± 5.6
350.6 K, Liquid | 549.12 ± 5.6
350.64 K, Liquid | 549.12 ± 5.6
352.08 K, Liquid | 550.98 ± 5.6
352.48 K, Liquid | 550.36 ± 5.6
352.5 K, Liquid | 550.36 ± 5.6
353.97 K, Liquid | 552.22 ± 5.6
354.36 K, Liquid | 551.6 ± 5.6
354.37 K, Liquid | 551.91 ± 5.6
355.86 K, Liquid | 553.47 ± 5.6
356.24 K, Liquid | 553.16 ± 5.6
356.25 K, Liquid | 553.16 ± 5.6
357.74 K, Liquid | 555.02 ± 5.6
358.11 K, Liquid | 554.71 ± 5.6
358.12 K, Liquid | 554.71 ± 5.6
359.64 K, Liquid | 556.26 ± 5.6
359.97 K, Liquid | 555.95 ± 5.6
360 K, Liquid | 555.95 ± 5.6
361.53 K, Liquid | 557.81 ± 5.6
361.84 K, Liquid | 557.5 ± 5.6
361.88 K, Liquid | 557.5 ± 5.6
363.42 K, Liquid | 559.05 ± 5.6
363.75 K, Liquid | 558.74 ± 5.6
365.3 K, Liquid | 560.3 ± 5.6
365.62 K, Liquid | 559.98 ± 5.6
367.19 K, Liquid | 561.85 ± 5.6
367.5 K, Liquid | 561.54 ± 5.6

— the NIST ThermoML archive (doi:10.1021/je700152c)
